Key:
Assay in all cases: KAM-matrix competition in K562 lysate;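 on 0.001 uM KAM: median log10 fold change of treatment over DMSO control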;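 on 0.01 uM KAM: median log10 fold change of treatment over DMSO control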;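 on 0.1 uM KAM: median log10 fold change of treatment over DMSO control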;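 on 1 uM KAM: median log10 fold change of treatment over DMSO control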;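 on 10 uM KAM: median log10 fold change of treatment over DMSO control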
Type in all cases: binding
HUNK = target: T1, HUNK (Homo sapiens, UniProt P57058);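 on 0.001 uM KAM: median log10 fold change of treatment over DMSO control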;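 on 0.01 uM KAM: median log10 fold change of treatment over DMSO control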;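 on 0.1 uM KAM: median log10 fold change of treatment over DMSO control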;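 on 1 uM KAM: median log10 fold change of treatment over DMSO control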;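 on 10 uM KAM: median log10 fold change of treatment over DMSO control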
T1 construct: endogenous in cells; host or cells: K562
T1 sequence (P57058 1-714): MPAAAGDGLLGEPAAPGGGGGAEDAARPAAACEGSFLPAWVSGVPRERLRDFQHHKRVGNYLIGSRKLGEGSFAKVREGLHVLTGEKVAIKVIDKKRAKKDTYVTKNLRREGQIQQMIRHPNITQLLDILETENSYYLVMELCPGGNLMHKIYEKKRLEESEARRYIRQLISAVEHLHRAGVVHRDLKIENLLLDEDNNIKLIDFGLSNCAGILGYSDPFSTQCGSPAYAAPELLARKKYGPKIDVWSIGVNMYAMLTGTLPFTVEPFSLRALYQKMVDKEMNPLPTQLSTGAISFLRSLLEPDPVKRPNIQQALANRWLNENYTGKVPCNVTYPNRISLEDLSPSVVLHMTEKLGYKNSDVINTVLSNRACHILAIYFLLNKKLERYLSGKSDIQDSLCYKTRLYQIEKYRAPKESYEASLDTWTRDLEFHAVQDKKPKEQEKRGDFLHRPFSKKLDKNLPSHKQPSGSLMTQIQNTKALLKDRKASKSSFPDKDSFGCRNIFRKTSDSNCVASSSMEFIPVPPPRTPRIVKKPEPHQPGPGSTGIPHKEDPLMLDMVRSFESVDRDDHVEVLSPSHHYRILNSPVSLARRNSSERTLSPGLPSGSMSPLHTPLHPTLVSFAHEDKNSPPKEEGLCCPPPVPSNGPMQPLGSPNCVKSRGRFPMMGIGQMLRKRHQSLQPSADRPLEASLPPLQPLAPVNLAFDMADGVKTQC
Method: (§1) Supplement 12953_2017_125_MOESM1_ESM.zip/MS_Supp Info.xlsx, sheet "KAM" | column: 10 uM KAM; 1 uM KAM; 0.1 uM KAM; 0.01 uM KAM; 0.001 uM KAM; RB50

MYO3A = target: T2, MYO3A (Homo sapiens, UniProt Q8NEV4);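 on 0.001 uM KAM: median log10 fold change of treatment over DMSO control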;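 on 0.01 uM KAM: median log10 fold change of treatment over DMSO control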;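 on 0.1 uM KAM: median log10 fold change of treatment over DMSO control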;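 on 1 uM KAM: median log10 fold change of treatment over DMSO control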;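 on 10 uM KAM: median log10 fold change of treatment over DMSO control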
T2 construct: endogenous in cells; host or cells: K562
Method: as §1

SPEG = target: T3, SPEG (Homo sapiens, UniProt Q15772);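 on 0.001 uM KAM: median log10 fold change of treatment over DMSO control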;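 on 0.01 uM KAM: median log10 fold change of treatment over DMSO control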;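 on 0.1 uM KAM: median log10 fold change of treatment over DMSO control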;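 on 1 uM KAM: median log10 fold change of treatment over DMSO control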;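 on 10 uM KAM: median log10 fold change of treatment over DMSO control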
T3 construct: endogenous in cells; host or cells: K562
T3 sequence (Q15772 whole entry): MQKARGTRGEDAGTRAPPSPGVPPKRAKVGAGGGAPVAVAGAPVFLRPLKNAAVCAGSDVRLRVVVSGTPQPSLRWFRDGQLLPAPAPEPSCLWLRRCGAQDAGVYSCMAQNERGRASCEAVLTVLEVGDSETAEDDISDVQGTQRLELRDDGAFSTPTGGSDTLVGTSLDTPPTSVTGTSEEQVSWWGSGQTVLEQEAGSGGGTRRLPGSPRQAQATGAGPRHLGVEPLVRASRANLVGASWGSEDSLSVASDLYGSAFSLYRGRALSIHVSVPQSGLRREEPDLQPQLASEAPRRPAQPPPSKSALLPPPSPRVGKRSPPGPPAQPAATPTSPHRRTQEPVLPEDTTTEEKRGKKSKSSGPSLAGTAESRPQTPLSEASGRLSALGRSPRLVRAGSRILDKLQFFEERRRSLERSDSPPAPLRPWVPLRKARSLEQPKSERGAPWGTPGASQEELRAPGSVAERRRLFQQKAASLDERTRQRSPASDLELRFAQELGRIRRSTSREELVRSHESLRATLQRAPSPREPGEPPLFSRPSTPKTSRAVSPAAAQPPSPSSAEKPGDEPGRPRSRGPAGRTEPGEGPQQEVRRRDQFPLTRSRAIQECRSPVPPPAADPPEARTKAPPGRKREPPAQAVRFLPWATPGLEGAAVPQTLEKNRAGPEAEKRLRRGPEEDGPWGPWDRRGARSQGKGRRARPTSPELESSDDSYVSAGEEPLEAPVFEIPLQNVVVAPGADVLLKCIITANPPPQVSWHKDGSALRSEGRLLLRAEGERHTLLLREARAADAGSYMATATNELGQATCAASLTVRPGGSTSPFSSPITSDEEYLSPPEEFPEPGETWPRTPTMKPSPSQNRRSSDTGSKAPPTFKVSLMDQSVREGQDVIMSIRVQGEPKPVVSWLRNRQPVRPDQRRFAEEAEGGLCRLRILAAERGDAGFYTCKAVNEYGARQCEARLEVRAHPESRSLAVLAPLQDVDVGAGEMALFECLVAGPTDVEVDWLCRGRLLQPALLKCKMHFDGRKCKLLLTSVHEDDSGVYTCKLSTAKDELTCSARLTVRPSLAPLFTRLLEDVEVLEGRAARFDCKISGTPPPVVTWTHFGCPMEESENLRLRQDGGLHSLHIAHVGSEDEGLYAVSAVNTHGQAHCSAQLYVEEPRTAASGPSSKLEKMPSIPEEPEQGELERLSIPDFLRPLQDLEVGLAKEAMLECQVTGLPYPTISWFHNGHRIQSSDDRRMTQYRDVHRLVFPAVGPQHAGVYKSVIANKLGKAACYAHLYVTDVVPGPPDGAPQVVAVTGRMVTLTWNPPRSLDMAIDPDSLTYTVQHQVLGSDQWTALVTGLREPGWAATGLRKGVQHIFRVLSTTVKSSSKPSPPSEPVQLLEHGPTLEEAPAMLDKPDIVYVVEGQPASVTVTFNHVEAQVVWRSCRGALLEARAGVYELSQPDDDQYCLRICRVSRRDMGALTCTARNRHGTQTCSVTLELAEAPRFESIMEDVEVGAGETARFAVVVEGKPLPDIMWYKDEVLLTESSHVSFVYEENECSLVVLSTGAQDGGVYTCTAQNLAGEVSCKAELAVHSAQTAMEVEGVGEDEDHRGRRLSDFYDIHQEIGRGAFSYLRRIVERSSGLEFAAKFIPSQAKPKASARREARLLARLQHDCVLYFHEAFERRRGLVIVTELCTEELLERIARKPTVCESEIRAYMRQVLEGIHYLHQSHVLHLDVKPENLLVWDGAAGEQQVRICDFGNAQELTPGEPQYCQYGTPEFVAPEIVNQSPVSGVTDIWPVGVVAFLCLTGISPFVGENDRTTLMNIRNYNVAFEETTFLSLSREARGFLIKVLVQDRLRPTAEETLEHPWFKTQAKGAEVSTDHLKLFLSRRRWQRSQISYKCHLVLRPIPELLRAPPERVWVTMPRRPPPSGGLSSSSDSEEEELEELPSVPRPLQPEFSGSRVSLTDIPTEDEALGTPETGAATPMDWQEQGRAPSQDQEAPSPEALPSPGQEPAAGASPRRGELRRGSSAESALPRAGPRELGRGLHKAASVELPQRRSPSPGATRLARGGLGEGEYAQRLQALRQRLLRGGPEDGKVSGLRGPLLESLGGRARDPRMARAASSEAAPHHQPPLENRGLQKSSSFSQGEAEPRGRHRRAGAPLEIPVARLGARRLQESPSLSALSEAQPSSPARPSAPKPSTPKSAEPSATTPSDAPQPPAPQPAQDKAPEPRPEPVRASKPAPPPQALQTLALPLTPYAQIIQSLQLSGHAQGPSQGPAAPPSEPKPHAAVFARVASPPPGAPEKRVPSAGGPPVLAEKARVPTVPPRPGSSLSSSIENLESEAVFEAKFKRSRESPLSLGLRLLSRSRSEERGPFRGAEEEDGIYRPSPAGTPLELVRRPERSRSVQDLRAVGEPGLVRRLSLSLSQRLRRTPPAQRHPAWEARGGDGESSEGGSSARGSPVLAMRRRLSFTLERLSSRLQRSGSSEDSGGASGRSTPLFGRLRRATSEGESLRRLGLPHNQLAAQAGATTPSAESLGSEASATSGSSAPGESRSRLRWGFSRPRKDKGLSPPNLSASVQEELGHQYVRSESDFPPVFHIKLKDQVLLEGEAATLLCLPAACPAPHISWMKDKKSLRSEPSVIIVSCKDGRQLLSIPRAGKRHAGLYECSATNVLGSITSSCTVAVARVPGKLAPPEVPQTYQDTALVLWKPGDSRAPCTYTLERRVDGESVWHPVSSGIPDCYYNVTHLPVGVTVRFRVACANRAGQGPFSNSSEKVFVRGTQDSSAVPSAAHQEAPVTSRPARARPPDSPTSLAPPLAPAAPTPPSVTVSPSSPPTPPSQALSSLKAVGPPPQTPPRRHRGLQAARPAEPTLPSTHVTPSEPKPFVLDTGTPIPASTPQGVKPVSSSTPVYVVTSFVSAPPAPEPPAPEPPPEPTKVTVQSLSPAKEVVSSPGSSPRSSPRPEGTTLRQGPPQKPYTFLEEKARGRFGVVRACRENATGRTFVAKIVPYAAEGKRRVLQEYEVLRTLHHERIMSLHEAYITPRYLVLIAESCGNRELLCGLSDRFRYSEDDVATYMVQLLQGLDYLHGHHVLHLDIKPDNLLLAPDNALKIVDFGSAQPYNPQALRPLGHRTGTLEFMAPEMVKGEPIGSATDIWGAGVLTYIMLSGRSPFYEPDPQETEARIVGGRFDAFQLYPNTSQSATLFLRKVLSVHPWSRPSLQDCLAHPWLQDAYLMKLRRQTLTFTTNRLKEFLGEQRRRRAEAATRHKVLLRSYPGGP
Method: as §1

MAP3K9 = target: T4, MAP3K9 (Homo sapiens, UniProt P80192)
T4 construct: endogenous in cells; host or cells: K562
Method: as §1

CAMK2D = target: T5, CAMK2D (Homo sapiens, UniProt Q13557);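 on 0.001 uM KAM: median log10 fold change of treatment over DMSO control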;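 on 0.01 uM KAM: median log10 fold change of treatment over DMSO control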;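 on 0.1 uM KAM: median log10 fold change of treatment over DMSO control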;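 on 1 uM KAM: median log10 fold change of treatment over DMSO control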;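 on 10 uM KAM: median log10 fold change of treatment over DMSO control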
T5 construct: endogenous in cells; host or cells: K562
T5 sequence (Q13557 whole entry): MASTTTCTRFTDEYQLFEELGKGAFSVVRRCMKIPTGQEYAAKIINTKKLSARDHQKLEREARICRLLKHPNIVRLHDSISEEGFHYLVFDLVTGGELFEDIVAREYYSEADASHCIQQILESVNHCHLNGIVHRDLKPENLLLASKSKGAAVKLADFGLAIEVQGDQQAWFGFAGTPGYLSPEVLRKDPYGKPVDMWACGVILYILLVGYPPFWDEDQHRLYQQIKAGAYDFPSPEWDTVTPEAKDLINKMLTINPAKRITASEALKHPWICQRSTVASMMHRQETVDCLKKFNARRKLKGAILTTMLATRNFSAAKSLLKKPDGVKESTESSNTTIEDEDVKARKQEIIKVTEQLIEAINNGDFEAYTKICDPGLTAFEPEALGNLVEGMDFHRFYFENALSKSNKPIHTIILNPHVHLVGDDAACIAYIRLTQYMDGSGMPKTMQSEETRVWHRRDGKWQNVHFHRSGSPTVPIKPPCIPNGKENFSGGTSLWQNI
Method: as §1

MAP3K1 = target: T6, MAP3K1 (Homo sapiens, UniProt Q13233)
T6 construct: endogenous in cells; host or cells: K562 cell lysate
Method: as §1

RPS6KA3 = target: T7, RPS6KA3 (Homo sapiens, UniProt P51812);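 on 0.001 uM KAM: median log10 fold change of treatment over DMSO control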;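 on 0.01 uM KAM: median log10 fold change of treatment over DMSO control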;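 on 0.1 uM KAM: median log10 fold change of treatment over DMSO control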;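 on 1 uM KAM: median log10 fold change of treatment over DMSO control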;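 on 10 uM KAM: median log10 fold change of treatment over DMSO control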
T7 construct: endogenous in cells; host or cells: K562
Method: as §1

RPS6KA5 = target: T8, RPS6KA5 (Homo sapiens, UniProt O75582)
T8 construct: endogenous in cells; host or cells: K562
T8 sequence (O75582 whole entry): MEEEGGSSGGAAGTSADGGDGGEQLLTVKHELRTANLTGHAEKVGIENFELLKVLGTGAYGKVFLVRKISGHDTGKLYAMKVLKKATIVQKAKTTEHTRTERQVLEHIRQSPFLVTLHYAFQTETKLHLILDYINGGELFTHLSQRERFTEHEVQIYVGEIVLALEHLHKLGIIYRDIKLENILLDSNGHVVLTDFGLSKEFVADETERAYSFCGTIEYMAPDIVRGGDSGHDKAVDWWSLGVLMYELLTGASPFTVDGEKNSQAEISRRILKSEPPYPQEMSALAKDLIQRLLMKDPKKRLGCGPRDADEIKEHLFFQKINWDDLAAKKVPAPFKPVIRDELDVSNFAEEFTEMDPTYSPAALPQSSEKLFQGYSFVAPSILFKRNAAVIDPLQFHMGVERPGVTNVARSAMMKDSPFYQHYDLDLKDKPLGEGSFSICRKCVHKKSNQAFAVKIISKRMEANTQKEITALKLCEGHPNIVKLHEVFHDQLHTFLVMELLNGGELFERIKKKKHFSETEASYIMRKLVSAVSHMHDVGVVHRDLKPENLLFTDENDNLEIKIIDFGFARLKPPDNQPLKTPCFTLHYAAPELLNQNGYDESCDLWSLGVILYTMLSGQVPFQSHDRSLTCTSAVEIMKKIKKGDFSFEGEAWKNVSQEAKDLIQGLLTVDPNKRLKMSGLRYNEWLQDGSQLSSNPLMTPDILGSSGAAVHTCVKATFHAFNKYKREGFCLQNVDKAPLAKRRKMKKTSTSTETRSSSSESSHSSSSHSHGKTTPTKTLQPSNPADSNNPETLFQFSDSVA
Method: as §1

[1] = KAM 0.001-10 uM, read-out: RB50 (the source's name)
[2] = read-out: RB50 (the source's name)

## N#CCc1ccc(Nc2nc(NCCCN)cc(Nc3cc(C4CC4)[nH]n3)n2)cc1 [KAM]
HUNK; [1]
  IC50: > 10 µM
HUNK; relative to 0 uM KAM = 0
  0.001 uM KAM: 0.08544
  0.01 uM KAM: 0.04291
  0.1 uM KAM: 0.1545
  1 uM KAM: 0.0644
  10 uM KAM: 0.1031
MYO3A; [1]
  IC50: > 10 µM
MYO3A; relative to 0 uM KAM = 0
  0.001 uM KAM: -0.00983
  0.01 uM KAM: 0.0682
  0.1 uM KAM: 0.01204
  1 uM KAM: 0.07454
  10 uM KAM: -0.0706
SPEG; [1]
  IC50: > 10 µM
SPEG; relative to 0 uM KAM = 0
  0.001 uM KAM: -0.04699
  0.01 uM KAM: 0.03576
  0.1 uM KAM: -0.007872
  1 uM KAM: 0.04064
  10 uM KAM: 0.01523
MAP3K9; 0.001 uM KAM
  median Log10 fold change: -0.03702
MAP3K9; 0.01 uM KAM
  median Log10 fold change: 0.03625
MAP3K9; 0.1 uM KAM
  median Log10 fold change: -0.05744
MAP3K9; 1 uM KAM
  median Log10 fold change: -0.2576
MAP3K9; 10 uM KAM
  median Log10 fold change: -0.4734
MAP3K9; [2]
  IC50: 1.8 µM
CAMK2D; [1]
  IC50: > 10 µM
CAMK2D; relative to 0 uM KAM = 0
  0.001 uM KAM: -0.03504
  0.01 uM KAM: 0.05262
  0.1 uM KAM: 0.01424
  1 uM KAM: -0.07545
  10 uM KAM: -0.201
MAP3K1; 0.001 uM KAM
  median Log10 fold change: -0.0387
MAP3K1; 0.01 uM KAM
  median Log10 fold change: -0.001908
MAP3K1; 0.1 uM KAM
  median Log10 fold change: -0.0773
MAP3K1; 1 uM KAM
  median Log10 fold change: -0.1722
MAP3K1; 10 uM KAM
  median Log10 fold change: -0.3697
MAP3K1; [2]
  IC50: 4.53 µM
RPS6KA3; [1]
  IC50: > 10 µM
RPS6KA3; relative to 0 uM KAM = 0
  0.001 uM KAM: -0.01612
  0.01 uM KAM: -0.01929
  0.1 uM KAM: -0.05841
  1 uM KAM: -0.1372
  10 uM KAM: -0.2816
RPS6KA5; 0.001 uM KAM
  median Log10 fold change: 0.02456
RPS6KA5; 0.01 uM KAM
  median Log10 fold change: -0.007608
RPS6KA5; 0.1 uM KAM
  median Log10 fold change: -0.1303
RPS6KA5; 1 uM KAM
  median Log10 fold change: -0.3238
RPS6KA5; 10 uM KAM
  median Log10 fold change: -0.3743
RPS6KA5; [2]
  IC50: 1.19 µM
